Earlier results as cited in patent publication US20230310343A1 (priority 2020, published 2023).
Read-outs that look alike come from different tables or passages of the source.

Legend:
[1] = system: infectious bronchitis virus (IBV)
[2] = system: herpes simplex virus 1 (HSV-1); settings: for selectivity index: HSV-1; for reduction of viral multiplication: HSV-1-infected cells
[3] = molecular target: N-terminus of the N protein (Avian infectious bronchitis virus, UniProt P69596); settings: IBV N protein
Sequence of N-terminus of the N protein (P69596 31-156 limits assumed): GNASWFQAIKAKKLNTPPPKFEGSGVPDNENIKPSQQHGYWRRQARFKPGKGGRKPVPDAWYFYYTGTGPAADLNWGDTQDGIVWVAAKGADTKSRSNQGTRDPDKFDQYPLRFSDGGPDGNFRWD

hemagglutinin = hemagglutinin (Influenza A virus, UniProt P03452)
Sequence of hemagglutinin (P03452 18-342 limits assumed): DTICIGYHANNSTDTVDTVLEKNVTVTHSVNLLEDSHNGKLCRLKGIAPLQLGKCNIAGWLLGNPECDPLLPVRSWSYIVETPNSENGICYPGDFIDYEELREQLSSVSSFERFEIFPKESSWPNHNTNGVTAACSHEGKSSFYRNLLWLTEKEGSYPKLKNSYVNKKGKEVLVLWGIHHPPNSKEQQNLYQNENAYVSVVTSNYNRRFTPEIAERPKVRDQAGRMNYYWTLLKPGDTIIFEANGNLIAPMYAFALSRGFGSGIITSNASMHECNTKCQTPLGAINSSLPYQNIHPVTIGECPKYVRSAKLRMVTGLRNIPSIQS
Sequence of hemagglutinin (P03452 344-565 limits assumed): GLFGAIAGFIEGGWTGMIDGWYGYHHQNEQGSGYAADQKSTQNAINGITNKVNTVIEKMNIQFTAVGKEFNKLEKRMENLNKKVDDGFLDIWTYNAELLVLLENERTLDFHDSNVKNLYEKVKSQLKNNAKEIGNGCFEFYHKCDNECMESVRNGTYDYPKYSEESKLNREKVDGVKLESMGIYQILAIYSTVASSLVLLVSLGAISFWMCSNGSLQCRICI

[4] = after penetration of the virus into the cell
[5] = before the virus has entered the cell

Compound: CC1=CCC2CC1C2(C)C (stereo not drawn) [alpha-pinene]
- reducing/inhibiting IBV replication [1]: inhibit viral replication

Compound: C=C1CCC2CC1C2(C)C (stereo not drawn) [beta-pinene]
- reducing/inhibiting IBV replication [1]: inhibit viral replication

Compound: CC12CCC(CC1)C(C)(C)O2 [cineole, 1,8-cineole]
- selectivity index [2]: low
- reduction of viral multiplication [2]: significantly reduce viral multiplication
- reducing/inhibiting IBV replication [1]: highly effective
- inhibition of IBV [1, 4]: fully effective
- inhibition of IBV [1, 5]: moderate effectiveness
- binding to the N-terminus of the N protein [3]: binds securely

Compound: CC(C)=CCC/C(C)=C/C=O [citrol]
- reduction of viral multiplication [2]: significantly reduce viral multiplication

Compound: CC(C)=CCCC(C)CCO (stereo not drawn) [citronellol]
- effectiveness against influenza (H1N1) (influenza (H1N1) virus; liquid phase): only partially effective
- effectiveness against influenza (H1N1) (influenza (H1N1) virus; vapor phase): effective

Compound: Cc1ccc(C(C)C)cc1 [cymene]
- reduction of viral multiplication [2]: significantly reduce viral multiplication

Compound: C=CCc1ccc(O)c(OC)c1 [eugenol]
- effectiveness against influenza (H1N1) (influenza (H1N1) virus; liquid phase): effective
- plaque reduction (influenza (H1N1) virus; liquid phase): one hundred
- effectiveness against influenza (H1N1) (influenza (H1N1) virus; vapor phase): effective

Compound: CC1=CCC(O)(C(C)C)CC1 (stereo not drawn) [terpinen-4-ol]
- reduction of viral multiplication [2]: significantly reduce viral multiplication

Compound: Cc1ccc(C(C)C)c(O)c1 [thymol]
- selectivity index [2]: low
- reduction of viral multiplication [2]: significantly reduce viral multiplication

Compound: pinene
- inhibition of hemagglutinin activity (hemagglutinin): able to inhibit
- reduction of viral multiplication [2]: significantly reduce viral multiplication
- inhibition of IBV [1, 4]: fully effective
- inhibition of IBV [1, 5]: moderate effectiveness
- binding to the N-terminus of the N protein [3]: binds to the N-terminus of the N protein

Compound: terpinene
- reduction of viral multiplication [2]: significantly reduce viral multiplication
